Data from patent US10570152B2, “Antibacterial therapeutics and prophylactics” (VYOME BIOSCIENCES PVT. LTD., priority 2015, dated 2020).
Converted amounts (≈) assume the structure as drawn.

Key:
A. baumannii ATCC 1906 = test: MIC by micro broth dilution; assay type: cell-based; settings: Acinetobacter baumannii, ATCC1906, read-out: Minimum inhibitory concentration (MIC)
Outline: (§1)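 Twofold serial dilutions in BHI broth per CLSI, inoculated with 0.5 McFarland culture (approx. 1.5×10^8 cells/ml) diluted 100-fold. Plates incubated 24 h at 37° C.; MIC read after Alamar blue addition.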

A. baumannii CCARM 12001 = test: MIC by micro broth dilution; assay type: cell-based; settings: Acinetobacter baumannii, CCARM12001, read-out: Minimum inhibitory concentration (MIC)
Outline: as §1

A. baumannii CCARM 12020 = test: MIC by micro broth dilution; assay type: cell-based; settings: Acinetobacter baumannii, CCARM12020, read-out: Minimum inhibitory concentration (MIC)
Outline: as §1

E. aerogenes M2-1 = test: MIC by micro broth dilution; assay type: cell-based; settings: Klebsiella aerogenes, M21, read-out: Minimum inhibitory concentration (MIC)
Outline: as §1

E. aerogenes NCIM 5139 = test: MIC by micro broth dilution; assay type: cell-based; settings: Klebsiella aerogenes, NCIM5139, read-out: Minimum inhibitory concentration (MIC)
Outline: as §1

E. coli BAA 196 = test: MIC by micro broth dilution; assay type: cell-based; settings: Escherichia coli, BAA196, read-out: Minimum inhibitory concentration (MIC)
Outline: as §1

E. coli MTCC 1687 = test: MIC by micro broth dilution; assay type: cell-based; settings: Escherichia coli, MTCC1687, read-out: Minimum inhibitory concentration (MIC)
Outline: as §1

E. faecium CCARM 5207 = test: MIC by micro broth dilution; assay type: cell-based; settings: Enterococcus faecium, CCARM5207, read-out: Minimum inhibitory concentration (MIC)
Outline: as §1

E. faecium NCIM 5421 = test: MIC by micro broth dilution; assay type: cell-based; settings: Enterococcus faecium, NCIM5421, read-out: Minimum inhibitory concentration (MIC)
Outline: as §1

E. fecalis CCARM 5168 = test: MIC by micro broth dilution; assay type: cell-based; settings: read-out: Minimum inhibitory concentration (MIC)
Outline: as §1

K. pneumonia ATCC 13883 = test: MIC by micro broth dilution; assay type: cell-based
Outline: as §1

P. aeruginosa ATCC 27853 = test: MIC by micro broth dilution; assay type: cell-based; settings: Pseudomonas aeruginosa, ATCC27853, read-out: Minimum inhibitory concentration (MIC)
Outline: as §1

P. aeruginosa CCARM 2161 = test: MIC by micro broth dilution; assay type: cell-based; settings: Pseudomonas aeruginosa, CCARM2161, read-out: Minimum inhibitory concentration (MIC)
Outline: as §1

P. aeruginosa CCARM 2204 = test: MIC by micro broth dilution; assay type: cell-based; settings: Pseudomonas aeruginosa, CCARM2204, read-out: Minimum inhibitory concentration (MIC)
Outline: as §1

S. aureus ATCC 43300 = test: MIC by micro broth dilution; assay type: cell-based; settings: Staphylococcus aureus, ATCC43300; S. aureus ATCC 43300; read-out: Minimum inhibitory concentration (MIC)
Outline: as §1

S. aureus CCARM 3505 = test: MIC by micro broth dilution; assay type: cell-based; settings: Staphylococcus aureus, CCARM3505, read-out: Minimum inhibitory concentration (MIC)
Outline: as §1

S. aureus MTCC 6908 = test: MIC by micro broth dilution; assay type: cell-based; settings: Staphylococcus aureus, MTCC6908, read-out: Minimum inhibitory concentration (MIC)
Outline: as §1

[1] = test system: S. epidermidis ATCC 35984; test: MIC by micro broth dilution; assay type: cell-based; settings: Staphylococcus epidermidis, ATCC35984, read-out: Minimum inhibitory concentration (MIC)
Outline: as §1

S. epidermidis S12-1 = test: MIC by micro broth dilution; assay type: cell-based; settings: Staphylococcus epidermidis, S121, read-out: Minimum inhibitory concentration (MIC)
Outline: as §1

S. epidermidis S5-2 = test: Sequential ZIB (zone of inhibition) assay for PMMA beads; assay type: cell-based, Staphylococcus epidermidis; settings: SmartSet HV impregnated beads
Method: S. epidermidis S5-2 cells were grown in Brain Heart Infusion Agar (BHIA) at 37° C. for 24 h. 100 μl of 0.5 McFarland equal bacterial suspension was spread on BHA plates. Drug loaded beads were placed above these plates. Plates were incubated at 37° C. for 24 h. Next day, zone of inhibition (ZOI) the beads were measured following which the beads were placed on fresh BHA plates with bacterial suspension spread and this experiment was continued up to seven days. The drug release pattern was determined by compiling and analyzing the ZOI data of beads on each ZOI cycle up to seven days.

[2] = Drug release assay of compound impregnated Smart set HV; assay type: physicochemical; settings: Smart set HV loaded; PBS buffer (pH 6.8):acetonitrile (9:1), 32° C., 7 days
Method: The drug release study with compound 2 and compound 10 were conducted in sample vial containing 1.5 ml of dissolution media i.e., PBS buffer (pH 6.8):acetonitrile (9:1). The sample was kept in incubator rotator at 32° C. at 40 rpm. The release medium was withdrawn at specified interval of time (2 hr, 4 hr, 6 hr, day 1, day 2, day 3, day 4, day 5, day 6, day 7 and replaced by fresh 1.5 ml dissolution medium each time. All the samples were kept at −20° C. till the analysis is done. The measurement of drug release was done by HPLC.

CC1Sc2c(C(=O)O)c(=O)c3cc(F)c(N4CCN(Cc5ccc([N+](=O)[O-])o5)CC4)cc3n21 (stereo not shown) [Compound 10, 6-Fluoro-1-methyl-7-(4-((5-nitrofuran-2-yl)methyl)piperazin-1-yl)-4-oxo-1H,4H-[1,3]thiazeto[3,2-a]-quinoline-3-carboxylic acid]
MIC (A. baumannii ATCC 1906): 1 µg/mL (≈ 2.11 µM)
MIC (A. baumannii CCARM 12001): > 16 µg/mL
MIC (A. baumannii CCARM 12020): 8 µg/mL (≈ 16.9 µM)
MIC (E. aerogenes M2-1): 0.25 µg/mL (≈ 0.527 µM)
MIC (E. aerogenes NCIM 5139): 0.125 µg/mL (≈ 0.263 µM)
MIC (E. coli BAA 196): 4 µg/mL (≈ 8.43 µM)
MIC (E. coli MTCC 1687): 0.13 µg/mL (≈ 0.274 µM)
MIC (E. faecium CCARM 5207): > 16 µg/mL
MIC (E. faecium NCIM 5421): 0.125 µg/mL (≈ 0.263 µM)
MIC (E. fecalis CCARM 5168): 1 µg/mL (≈ 2.11 µM)
activity in words (K. pneumonia ATCC 13883; Klebsiella pneumonia (susceptible)): active
MIC (K. pneumonia ATCC 13883; Klebsiella pneumoniae, ATCC13883, K. pneumonia ATCC 13883, read-out: Minimum inhibitory concentration (MIC)): 0.25 µg/mL (≈ 0.527 µM)
MIC (P. aeruginosa ATCC 27853): 1 µg/mL (≈ 2.11 µM)
MIC (P. aeruginosa CCARM 2161): > 16 µg/mL
MIC (P. aeruginosa CCARM 2204): 4 µg/mL (≈ 8.43 µM)
MIC (S. aureus ATCC 43300): < 0.02 µg/mL
MIC (S. aureus CCARM 3505): 1 µg/mL (≈ 2.11 µM)
MIC (S. aureus MTCC 6908): 0.04 µg/mL (≈ 0.0843 µM)
MIC [1]: < 0.03 µg/mL
MIC (S. epidermidis S12-1): 2.25 µg/mL (≈ 4.74 µM)
Sequential ZOI (S. epidermidis S5-2; Day-1): 2.2 cm
Sequential ZOI (S. epidermidis S5-2; Day-2): 2 cm
Sequential ZOI (S. epidermidis S5-2; Day-3): 1.8 cm
Sequential ZOI (S. epidermidis S5-2; Day-4): 1.7 cm
Sequential ZOI (S. epidermidis S5-2; Day-5): 1.7 cm
Sequential ZOI (S. epidermidis S5-2; Day-6): 1.6 cm
Sequential ZOI (S. epidermidis S5-2; Day-7): 1.8 cm
drug release from bone cement in words [2]: sustained release of active over a period of 7 days
